US20100035943A1, “Oxa-and thiadiazoles and their use as metalloproteinase inhibitors” (VERNALIS (OXFORD) LTD, priority 2002, published 2010)

Key:
[1] = test system: CCl4-induced liver fibrosis; assay: CCl4-induced liver fibrosis model; type: in vivo, Male Sprague-Dawley rats; conditions: rat, CCl4 i.p.
Source text: Carbon tetrachloride (CCl4) induces liver fibrosis when administered intraperitoneally (Bulbena O, Culat J, Bravo M L., Inflammation 1997 October; 21(5):475-88). Compounds of the invention can be evaluated for their ability to prevent the CCl4-induced formation of fibrotic tissue. Male Sprague-Dawley rats, 7 weeks old, weight approx. 300 g from Charles River/Iffa-Crédo, St-Germain/l'Arbresle, France. The study involved the following groups of 8 animals each, as indicated below. Group 1: “Sham” animals received CCl4 vehicle (i.p.) and once daily, the vehicle of test substance (s.c.) Group 2: Positive control group received CCl4 (i.p.), and once daily, the vehicle of the test substance (s.c.) Group 3: Experimental group received CCl4 (i.p.), and once daily, 2 mg/kg s.c. of the compound of Example 13. Group 4: Experimental group received CCl4 (i.p.), and once daily, 10 mg/kg s.c. of the compound of Example 13. Group 5: Experimental group received CCl4 (i.p.) and once daily, 20 mg/kg s.c. of the compound of Example 13. CCl4 (Prolabo) in olive oil was administered every 3 days for three weeks by intraperitoneal injection (0,25 ml CCl4/kg body weight, diluted in oil 1:1 vol:vol for a total volume of 0.5 ml/kg). Animals were weighed daily. If body weight decreased by more than 10% of the initial weight, the animal was excluded from the study. Vehicles and compound were used as follows: • CCl4 was administered in olive oil (prolabo) at a 1:1 dilution; • The compound of Example 13 was suspended in 0.25% Tween-80 and 0.25% carboxymethylcellulose in sterile 0.9% NaCl. The solution was kept at 4° C. throughout the experiment and used each day to prepare the suspensions. The compound of Example 13 was administered daily by subcutaneous (s.c.) injection at a volume of administration of 5 ml/kg. Groups 1 and 2 were dosed s.c. with 5 ml/kg of vehicle. Freshly prepared solutions were used on each day of the experiment. […] Plasma aspartate amino transferase (ASAT) and alanine amino transferase (ALAT) levels were measured in order to assess liver necrosis. […]

collagenase (MMP1) = molecular target: T1, collagenase (MMP1) (Homo sapiens, UniProt P03956); assay: MMP1 enzyme inhibition assay (fluorogenic peptide substrate McaPLGLDpaAR); type: biochemical; conditions: protocol as for MMP9 assay
T1 sequence (P03956 100-469): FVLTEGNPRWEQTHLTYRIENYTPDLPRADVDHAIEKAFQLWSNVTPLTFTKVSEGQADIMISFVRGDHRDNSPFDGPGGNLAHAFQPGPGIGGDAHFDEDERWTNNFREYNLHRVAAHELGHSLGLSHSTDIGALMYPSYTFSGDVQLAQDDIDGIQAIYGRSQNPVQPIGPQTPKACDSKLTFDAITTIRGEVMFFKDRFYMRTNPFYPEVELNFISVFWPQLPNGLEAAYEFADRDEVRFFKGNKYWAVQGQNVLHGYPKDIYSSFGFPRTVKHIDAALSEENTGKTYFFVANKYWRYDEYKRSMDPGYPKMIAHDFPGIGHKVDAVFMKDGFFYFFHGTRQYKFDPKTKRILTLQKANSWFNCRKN
Experimental: Stock solutions were made up as follows: • Assay Buffer: 100 mM Tris-HCl pH 7.6 containing 100 mM NaCl, 10 mM CaCl2, and 0.05% Brij 35 • Substrate: 0.4 mM McaPLGLDpaAR (from Bachem) (0.437 mg/ml) stock solution in 100% DMSO (stored at −20° C.). Dilute to 8 μM in assay buffer. • Enzyme: Recombinant human 92 kDa gelatinase (MMP-9; APMA (4-aminophenyl • mercuric acetate)—activated if necessary) appropriately diluted in assay buffer.
Test Compounds were prepared initially as 10 mM compound solution in 100% DMSO, diluted to 1 mM in 100% DMSO, then serially diluted 3-fold in 100% DMSO across columns 1-10 of a 96-well microtitre plate Assay concentration range, 100 μM (column 1) to 5.1 nM (column 10)
The assay was performed in a total volume of 100 μl per well in 96-well microtitre plates. Activated enzyme (20 μl) was added to the wells followed by 20 μl of assay buffer. Appropriate concentrations of test compounds dissolved in 10 μl of DMSO were then added followed by 50 μl of McaPLGLDpaAR (8 μM, prepared by dilution of DMSO stock in assay buffer). For each assay ten concentrations of test compound were examined in duplicate. Control wells lack either enzyme or test compound. The reactions were incubated at 37° C. for 2 hours. The fluorescence at 405 nm was measured immediately with an SLT Fluostar fluorometer (SLT Labinstruments GmbH, Grödig, Austria) using 320 nm excitation, without stopping the reaction.
The effect of the test compound was determined from the dose response curve generated by the 10 duplicate concentrations of inhibitor. The IC50 (the concentration of compound required to give a 50% decrease in enzyme activity) was obtained by fitting data to the equation, Y=a+((b−a)/(1+(c/X)^d)). (Y=inhibition achieved for a particular dose; X=the dose in nM; a=minimum y or zero % inhibition; b=maximum y or 100% inhibition; c=is the IC50; d=is the slope). The result was rounded to one significant figure.
• Compounds were tested for inhibitory activity against collagenase (MMP1) in an assay using a coumarin-labelled peptide substrate, (7-methoxycoumarin-4-yl)acetyl-Pro-Leu-Gly-Leu-(3-[2,4-dinitrophenyl]-L-2,3-diaminopropionyl)-Ala-Arg-NH2 (McaPLGLDpaAR) (Knight et al, FEBS Lett. 1992; 263-266). The protocol for this assay was as described for the MMP9 assay above.

[2] = compound s.c. once daily 2, 10, 20 mg/kg for 21 days, compared to vehicle (FIG. 1)

CC(C)C[C@@H](C(=O)N[C@H](c1noc(-c2cccs2)n1)C(C)(C)C)[C@H](O)C(=O)NO [Example 13, 2S-Hydroxy-3R-[1S-(5-thiophen-2-yl-[1,2,4]oxadiazol-3-yl)-2,2-dimethyl-propylcarbamoyl]-5-methyl Hexanohydroxamic Acid]
Plasma alanine amino transferase (ALAT) level [1, 2]: clearly decreases
Plasma aspartate amino transferase (ASAT) level [1, 2]: clearly decreases
Effect on the liver ([1]; compound s.c. once daily, conclusion from ASAT and ALAT levels): protective effect on the liver
IC50 (collagenase (MMP1)): 100 to 1000 nM
